# Measured values: patent publication US6455593B1, “Method of dynamic retardation of cell cycle kinetics to potentiate cell damage” (priority 1995, dated 2002)
# Where two headings read alike, the source gives them in different places.
# Experiments:
# p. falciparum D6 = experiment: Parasite growth by 3H-hypoxanthine uptake in infected erythrocytes; assay type: cell-based; settings: Plasmodium falciparum, D6, Erythrocyte, read-out: inhibitory concentrations (IC50), strain D6
# [1] = cited from earlier work
# U937 cells [2] = experiment: DNA gel electrophoresis for DNA fragmentation (apoptosis); assay type: cell-based, human
# Protocol: Samples of the U937 cells were exposed to a series of concentrations of dThd for 24 hr. Their DNA was isolated by lysis of cell samples in TE buffer containing TRIS 10 mM, EDTA 10 mM, SDS 0.5% and proteinase K 200 μg/ml at […] for 2 h. The proteins were precipitated in a IM solution of NaCl and centrifuged at 2,500×g for 30 min at […] DNAse free RNase (25 μg/ml) was added to the supernatant and incubated for 30 min at 37° C. Spectrophotometric quantitation of the DNA in the supernatant was quantitated by absorbance spectrophotometry at 260 nm. Volumes adjusted to contain equal amounts of DNA were mixed with a loading buffer of 40% (w/v) sucrose, 0.1M EDTA pH 8.0, 0.5% (w/v) sodium lauryl sulphate and 0.05% (w/v) bromophenol blue. […] Separated bands of DNA were stained with ethidium bromide and photographed in UV light (Fotodyne Inc.). […] The lowest molecular weight (about 180 bp) was determined with a standard 123 bp ladder from Sigma Chemical Co. (Cat. #D5042). The result shown is a classical “DNA ladder,” characteristic of the fragmentation of DNA macromolecules in apoptosis. See Tomei, supra; Obeid, supra; Gold, supra.
# U937 cells [3] = experiment: Delayed proliferation assay (MTT 48 hr after washing)
# Protocol: Microcultures treated with an agent or agents for a defined period (exactly as in Example 8) were washed. Seventy-five percent of the well volume was removed without disturbing the sedimented cells, and medium was added to yield a ⅕ dilution. In three additional washes and cell sedimentations, 50% of the medium was replaced such that the original concentration of agents was reduced to <5%. The metabolic mass of cells surviving or proliferating at 48 hr after the washings, including the untreated control cells, was then assayed by the MTT method (total elapsed time of 70 hours).
# As an adjunct to the delayed proliferative assay, we utilized an “immediate plate” to quantitate the cell mass at the beginning of the experiment (N0=original cell mass). It required no more than a single column of microwells filled with 50 μl of growth medium each, and aliquots of cells in 50 μl identical to those transferred to the usual “test plate”. The immediate plate was incubated at 37° C. to complete the MTT assay for the same time as used for the test plate (i.e. 3 hr).
# Taking the mean final cell mass at 70 hours as N, each data point represents a ratio of the mean cell mass of dThd-treated cells as fraction of N/N0. A ratio of N/N0=1 indicates no change in original cell mass (i.e. no growth of the targeted population). A ratio of N/N0>1 indicates overall growth of the targeted population. A ratio of N/N0<1 indicates overall population loss (cell killing).
# Taking the mean final cell mass at 70 hours as N, positive percentages represent the % effective cytotoxicity (EC%) expressed as 1−N/N0 and converted to a percentage, in relation to concentration. Thus, EC obtained only for ratios of N/N0<1 (i.e. positive percentages).
# U937 cells [4] = experiment: Bivariate flow cytometry, dUTP terminal transferase labelling of DNA strand breaks; assay type: cell-based, human
# Protocol: In a more sophisticated use of flow cytometry, DNA strand breaks were detected in nuclei by means of terminal transferase and homopolymer tailing as described by Gorczyca W. et al., Cancer Res 53:1945-1951 (1993). Samples of 1×10^6 cells were fixed in 1% buffered formaldehyde at 0° C. for 5 minutes, washed with PBS, resuspended in 70% ethanol and stored at […] for 48 hours. Cells were rehydrated in PBS, then suspended in 100 μl of cacodylate buffer and 2.5 mM CoCI2 to prepare them for the terminal transferase reaction. Biotin-labelled 16-dUTP and terminal transferase (Boehringer Mannheim, GmbH) were added to provide the final concentration of […] and 500 units/ml, respectively, and reacted with the cells at 37° C. for 30 minutes. Cells were rinsed in PBS, resuspended in a 4×saline-citrate buffer with 0.1% triton X100, 5% (w/v) non-fat powdered milk and 2.5 μg/ml FITC-labelled avidin, Boehringer Mannheim, supra, and incubated at room temperature for 30 minutes. Excess avidin-FITC was removed by washing the cells with PBS containing 0.1% triton X-100. In the cells with DNA damage, biotin-labelled dUTP was localized by the avidin-FITC: avidin and biotin form a strong linkage and reveal the extent of dUTP homopolymer tailing.
# The amount of DNA per cell reflects the cell cycle position of each cell.
compound,measurement,setting,value
"C[C@@]1(CO)[C@H](O)CC[C@@]2(C)[C@H]1CC[C@H]1C[C@@H]3C[C@@]12CC[C@]3(O)CO [Aph, aphidicolin]",IC50,"p. falciparum D6; 24 hr after RBC infection, 3H-hypoxanthine uptake",400 nM
same,Peak plasma levels,"[1]; continuous infusion, minimal toxicity",3 µg/mL
"CN[C@@H]1C[C@H]2O[C@@](C)([C@@H]1OC)n1c3ccccc3c3c4c(c5c6ccccc6n2c5c31)C(=O)NC4 [STSP, staurosporine]",DNA ladder pattern fragmentation,"U937 cells [2]; 50 nM STSP, 8 hours, U937",DNA fragmentation in U937 cells in 8 hours
same,Effective cytotoxicity (1-N/N0),"U937 cells [3]; 13 nM STSP in the presence of 0.5 mM dThd, 70 hours",about 85%
same,Effective cytotoxicity (1-N/N0),"U937 cells [3]; 25 nM STSP in the presence of 0.1 mM dThd, 70 hours",about 85%
same,IC50,p. falciparum D6,190 nM
same,dUTP labelling (DNA fragmentation),U937 cells [4]; 4 hours of 0.2 mM dThd followed by 25 nM STSP for additional 7 hours,marked increase in the number of dUTP labelled cells
"Cc1cn([C@H]2C[C@H](O)[C@@H](CO)O2)c(=O)[nH]c1=O [dThd, deoxythymidine]",DNA fragmentation,"U937 cells [2]; 3 mM dThd, cell cycle arrest",pronounced DNA fragmentation
same,dThd concentration giving fragmentation of DNA,"U937 cells [2]; U937, 24 hr, FIG. 8",> 0.5 mM
same,Effect on cell growth,"U937 cells [3]; 0.1 mM dThd alone, FIG. 20",minimal effect on cell growth as compared to controls
same,Concentration for effective cytotoxicity of 40% (EC40),"U937 cells [3]; dThd alone, 70 hours",More than 3 mM
same,Blood (plasma) levels achieved,"[1]; human subjects, oral doses",up to 6 mM
same,dUTP labelling (DNA fragmentation),"U937 cells [4]; 3 mM dThd, 11 hours","appearance of cells with dUTP labelling, indicating DNA fragmentation"
